Tested on: old Labrador Retriever dog that had difficulty in standing and walking
Test: Exercise ability (walking distance) of a dog under cofactor supplementation
Assay type: in vivo
Method: When L-carnitine, acetyl-L-carnitine, with added pantothenate at 0.4 mg/kg body weight were supplemented for one week, exercise ability increased to 2740 yards and, by three weeks, ability was 3807 yards. However, when pantothenate was eliminated for two weeks, exercise ability declined to 350 yards. Then when pantothenate was returned to the L-carnitine and acetyl-L-carnitine combination, his exercise capability returned to more than 3800 yards. This case illustrates the contribution of the various cofactors to physical activity.

Compound | distance it could walk (after one week of L-carnitine at 5 mg/kg body weight, 340 yards before) | exercise ability (distance walked) (after two weeks of acetyl-L-carnitine at 4 mg/kg body weight and no L-carnitine)
C[N+](C)(C)C[C@H](O)CC(=O)[O-] [L-carnitine] | 1240 yards | –
CC(=O)O[C@H](CC(=O)[O-])C[N+](C)(C)C [acetyl-L-carnitine] | – | 648 yards

Reference: patent US20070042020A1, “Composition for the treatment of dysfunctional energy metabolism syndrome” (priority 2003, published 2007)
